Results from patent US10675269B2, “Compositions comprising melatonin” (TRINUTRA LTD., priority 2016, dated 2020).

Tests used:
RAW 264.7 cells = experiment: Nitric oxide (NO) release from LPS-activated RAW 264.7 cells, Griess Reagent System; format: cell-based, murine; conditions: for inhibition of NO production when compared with the LPS-stimulated baseline cells: 1.3 μM valerenic acid
Experimental: The objective of the studies reported in working examples 1-5 hereinbelow was to evaluate the anti-inflammatory properties of Melatonin, carnosic acid (Rosemary extract), Valerenic acid and combinations thereof on a cell line derived from murine macrophages (RAW 264.7 cells) activated by lipopolysaccharide (LPS).
10^5 RAW 264.7 cells were seeded in 96-well plates in a medium containing 1% FBS, 1% Glutamine and 1% Pen/strep in DMEM.
For dose response assays, cells were treated with 2-fold concentrations of Melatonin (starting from 15.6 μM up to 1000 μM LOT # XPS150311, Yes Pharma), Rosemary extract (0.1, 0.2, 0.4, 1, 2, 4, or 10 μM, Product #302659, Batch # LAB.16-659001, Vitiva) or 10% Valerenic acid (starting from 1.56 mg/ml up to 100 mg/ml, Batch # IWTC/5949/15001, Indo World Trading Corporation) for 6 hours. Then, the test solutions were removed and the cells were induced with lipopolysaccharide (LPS) (5 ng/ml). In addition, positive control cells were treated with 10 μM dexamethasone. Nitric oxide (NO) release was measured after incubation at 37° C., 5% CO2 using a Griess Reagent System. The method is based on the chemical diazotization reaction that was originally described by Griess in 1879, which uses sulfanilamide and N-1-napthylethylenediamine dihydrochloride (NED) under acidic (phosphoric acid) conditions. This system detects NO2^− in a variety of biological and experimental liquid matrices such as tissue culture medium that was tested in this study.
For combination assays, cells were treated with various concentrations of Melatonin, Rosemary extract (containing 25% carnosic acid) and 10% Valerenic acid, at the final concentration indicated in each experiment, hereinbelow, for 22 hours together with LPS induction (5 ng/ml). […] In addition, positive control cells were treated with 10 μM dexamethasone. Nitric oxide (NO) release was tested after incubation at 37° C., 5% CO2 using the Griess Reagent System.

laboratory rats = experiment: Open field spontaneous activity (mobility time), anxiolytic effect; format: in vivo, rat; conditions: FIG. 3, 15 minute session, 30 minutes after administration
Experimental: Open field tests were used as a measure of the spontaneous activity of laboratory rats, in order to measure the anxiolytic effects of melatonin, valerian and a combination of these two substances. Rats were placed in a behavioral room one hour before testing procedures, for purpose of habituation. Activity was tested in open boxes (open-fields: 80 cm wide, 80 cm large, 60 cm high) made of transparent Plexiglas. Animals were individually placed in the open-fields for 15 minute sessions. The following parameters were recorded: Indices of motor exploratory activity: the distance traveled, mobility time, Open Field spontaneous activity is performed on the testing day, 30 minutes after the administration of a test substance (melatonin, valerian, a combination of the two, or vehicle). • Indices of habituation: distance traveled. • During the last 5 minute period in percent of the first as last 5 minute periods. • Indices of anxiety: • Percentage of distance traveled in the central zone of the open-field. • Percentage of time spent in the central zone of the open-field.

rats = experiment: Open field center time, base-line and caffeine-relaxed rats; format: in vivo, rat; conditions: FIG. 4; caffeine-relaxed rats
Experimental: As in Example 3, above, open field tests were used to measure the anxiolytic effects of melatonin, valerian and a combination of these two substances. However, in some of the rats in the present study, the effect of the test substances was measured in rats which had also received caffeine. Thus, while the study reported in Example 3 provided insights into the effect of melatonin and valerian on base-line anxiety, the results obtained in this study relate to the effect of these substances on both base-line and caffeine-induced (“caffeine-relaxed”) subjects. The same open-field method was used as in Example 3. However, in this study, the parameter that was measured was the “center time” that is, the time that the rats spend in the center of tested arena. The center time was used as an index for the anxiolytic effect of the test substances in both “base-line” and “caffeine-relaxed” rats.

[1] = Example 1, FIG. 1, tested separately: 0.5 μM Melatonin, 0.7 μM carnosic acid, 22 hours together with 5 ng/ml LPS
[2] = Example 2, tested separately: 0.05 μM Melatonin, 0.07 μM carnosic acid, 5 ng/ml LPS

Row | Structure (SMILES) | NO production by the cultured cells (RAW 264.7 cells; Example 1, FIG. 1 column 2, positive control 10 μM dexamethasone, 5 ng/ml LPS, LPS-stimulated untreated cells 40 μM) | inhibition of NO production when compared with the LPS-stimulated baseline cells (RAW 264.7 cells; [1]) | inhibition of NO production when compared with the LPS-stimulated baseline cells (RAW 264.7 cells; [2]) | mobility time in comparison to the vehicle control (laboratory rats) | caffeine induced center motility (rats)
1 | C[C@@H]1C[C@H]2[C@@H]3CCC4=CC(=O)C=C[C@]4(C)[C@@]3(F)[C@@H](O)C[C@]2(C)[C@@]1(O)C(=O)CO [dexamethasone] | 30 µM | – | – | – | –
2 | COc1ccc2[nH]cc(CCNC(C)=O)c2c1 [Melatonin, N-acetyl-5-methoxytryptamine] | – | none of the following individual components produced any significant inhibition | none of the following individual components produced any significant inhibition | increased the mobility time | only valerian (both when used separately and when combined with melatonin) affected caffeine induced center motility
3 | CC(C)c1cc2c(c(O)c1O)[C@@]1(C(=O)O)CCCC(C)(C)[C@@H]1CC2 [carnosic acid] | – | none of the following individual components produced any significant inhibition | none of the following individual components produced any significant inhibition | – | –
4 | CC1=C2[C@H](/C=C(\C)C(=O)O)CC[C@@H](C)[C@H]2CC1 [valerenic acid] | – | none of the following individual components produced any significant inhibition | none of the following individual components produced any significant inhibition | – | –
